Here are results for 39 compounds from patent US20250122173A1, “MODULATORS OF RHO-ASSOCIATED PROTEIN KINASE” (Redx Pharma Limited, priority 2022, published 2025).

A value given as a limit tells only on which side of the number the result lay.

The target of assay [1] is T1, ROCK2 (Homo sapiens, UniProt O75116).
T1 construct: N-terminal 6His-tagged ROCK2 catalytic domain 11-552; 6His (N); purchased Dundee University, UK; host or cells: baculovirus expression system
The assay can be described thus: ROCK2 inhibition assay (ADP-Glo kinase assay, called ROCK2 binding activity). The settings on record: 20 μM ATP, 1 hour pre-incubation, read-out: ROCK 2 (IC50 category). In kind it is biochemical. The method, then:
ROCK2 Binding Activity: Assay for ROCK2 inhibition was performed using the protein construct N-terminal 6His-tagged ROCK2 catalytic domain 11-552 (Dundee University, UK). Protein was purified from a baculovirus expression system. Long S6 peptide ([…]) was used as substrate. Kinase reactions were carried out in 15 μl volume in a 96-well plate (black, half area) using 1.25 nM constitutively active ROCK2 kinase, 100 μM long S6 peptide, 20 μM ATP and test compound in DMSO (or DMSO only for controls). The final concentration of DMSO was 1%. Assay buffer was 50 mM HEPES pH 7.5 supplemented with 0.2 mM EDTA, 10 mM magnesium acetate, 0.01% Tween-20, 1 mM DTT and 0.01% BSA. Test compounds were pre-incubated with ROCK2 kinase for 1 hour before addition of ATP and long S6 peptide. After incubation for a further 1 hour, the amount of ADP produced was measured using ADP-Glo Kinase Assay (Promega) as per manufacturer's instructions. The luminescence was measured on a PHERAstar FS (BMG Labtech). The concentration of test compound required to inhibit ADP production by 50% (the IC50) was calculated using a four-parameter logistic function with software by Dotmatics. […] The category “+” refers to compounds with a ROCK2 or ROCK1 IC50 value of >10 μM. The category “++” refers to compounds with a ROCK2 or ROCK1 IC50 value of 10 to 3 μM. The category “+++” refers to compounds with a ROCK1 or ROCK2 IC50 value of 3 to 0.3 μM. The category “++++” refers to compounds with a ROCK1 or ROCK2 IC50 value of <0.3 μM.
(In general: ADP-Glo first removes unused ATP, then detects ADP through luciferase.)

The target in assay [2] is ROCK1 (Homo sapiens, UniProt Q13464). The assay is described as follows: ROCK1 inhibition assay (ROCK1 binding activity, as determined by the assay described for ROCK2). In kind it is biochemical. Conditions: read-out: ROCK 1 (IC50 category). The method, then:
Assay for ROCK2 inhibition was performed using the protein construct N-terminal 6His-tagged ROCK2 catalytic domain 11-552 (Dundee University, UK). Protein was purified from a baculovirus expression system. Long S6 peptide ([…]) was used as substrate. Kinase reactions were carried out in 15 μl volume in a 96-well plate (black, half area) using 1.25 nM constitutively active ROCK2 kinase, 100 μM long S6 peptide, 20 μM ATP and test compound in DMSO (or DMSO only for controls). The final concentration of DMSO was 1%. Assay buffer was 50 mM HEPES pH 7.5 supplemented with 0.2 mM EDTA, 10 mM magnesium acetate, 0.01% Tween-20, 1 mM DTT and 0.01% BSA. Test compounds were pre-incubated with ROCK2 kinase for 1 hour before addition of ATP and long S6 peptide. After incubation for a further 1 hour, the amount of ADP produced was measured using ADP-Glo Kinase Assay (Promega) as per manufacturer's instructions. The luminescence was measured on a PHERAstar FS (BMG Labtech). The concentration of test compound required to inhibit ADP production by 50% (the IC50) was calculated using a four-parameter logistic function with software by Dotmatics. […] The category “+” refers to compounds with a ROCK2 or ROCK1 IC50 value of >10 μM. The category “++” refers to compounds with a ROCK2 or ROCK1 IC50 value of 10 to 3 μM. The category “+++” refers to compounds with a ROCK1 or ROCK2 IC50 value of 3 to 0.3 μM. The category “++++” refers to compounds with a ROCK1 or ROCK2 IC50 value of <0.3 μM.

ROCK1, sequence (Q13464 whole entry, the tested form may be a part): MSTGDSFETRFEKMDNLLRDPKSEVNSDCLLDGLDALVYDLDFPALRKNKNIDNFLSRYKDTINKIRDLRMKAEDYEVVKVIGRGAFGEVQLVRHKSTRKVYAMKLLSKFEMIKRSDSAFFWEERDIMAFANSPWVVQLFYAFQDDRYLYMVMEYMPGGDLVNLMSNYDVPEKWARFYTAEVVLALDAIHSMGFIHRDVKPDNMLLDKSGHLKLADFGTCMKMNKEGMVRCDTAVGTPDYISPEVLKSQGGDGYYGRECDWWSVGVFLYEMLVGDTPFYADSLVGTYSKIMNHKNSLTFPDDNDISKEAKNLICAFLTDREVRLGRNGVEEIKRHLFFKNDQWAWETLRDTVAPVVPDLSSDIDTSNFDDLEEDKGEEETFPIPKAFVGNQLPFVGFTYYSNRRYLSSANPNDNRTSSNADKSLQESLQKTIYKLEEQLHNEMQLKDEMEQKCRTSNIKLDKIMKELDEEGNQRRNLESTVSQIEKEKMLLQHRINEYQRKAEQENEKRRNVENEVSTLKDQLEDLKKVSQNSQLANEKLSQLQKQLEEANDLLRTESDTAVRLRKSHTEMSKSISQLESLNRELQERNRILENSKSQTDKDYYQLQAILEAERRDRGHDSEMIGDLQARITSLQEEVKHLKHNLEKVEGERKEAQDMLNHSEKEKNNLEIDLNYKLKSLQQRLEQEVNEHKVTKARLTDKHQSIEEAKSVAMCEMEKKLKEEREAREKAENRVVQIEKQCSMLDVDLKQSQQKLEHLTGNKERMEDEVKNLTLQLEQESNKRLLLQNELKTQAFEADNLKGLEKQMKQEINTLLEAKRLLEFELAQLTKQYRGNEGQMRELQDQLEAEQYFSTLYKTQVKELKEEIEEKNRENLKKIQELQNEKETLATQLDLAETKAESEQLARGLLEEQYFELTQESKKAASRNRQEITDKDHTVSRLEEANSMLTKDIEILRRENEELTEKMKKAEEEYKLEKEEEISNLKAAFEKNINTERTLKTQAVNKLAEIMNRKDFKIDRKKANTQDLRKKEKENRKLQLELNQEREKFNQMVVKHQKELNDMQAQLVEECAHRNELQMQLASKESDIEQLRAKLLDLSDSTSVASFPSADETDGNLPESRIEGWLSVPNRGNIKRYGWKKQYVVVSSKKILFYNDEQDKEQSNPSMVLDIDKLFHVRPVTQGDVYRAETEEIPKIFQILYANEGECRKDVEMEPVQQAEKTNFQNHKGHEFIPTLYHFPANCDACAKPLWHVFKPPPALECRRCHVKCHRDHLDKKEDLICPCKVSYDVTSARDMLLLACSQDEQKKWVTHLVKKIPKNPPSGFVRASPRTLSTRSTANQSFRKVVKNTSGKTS
T1 sequence (O75116 11-552): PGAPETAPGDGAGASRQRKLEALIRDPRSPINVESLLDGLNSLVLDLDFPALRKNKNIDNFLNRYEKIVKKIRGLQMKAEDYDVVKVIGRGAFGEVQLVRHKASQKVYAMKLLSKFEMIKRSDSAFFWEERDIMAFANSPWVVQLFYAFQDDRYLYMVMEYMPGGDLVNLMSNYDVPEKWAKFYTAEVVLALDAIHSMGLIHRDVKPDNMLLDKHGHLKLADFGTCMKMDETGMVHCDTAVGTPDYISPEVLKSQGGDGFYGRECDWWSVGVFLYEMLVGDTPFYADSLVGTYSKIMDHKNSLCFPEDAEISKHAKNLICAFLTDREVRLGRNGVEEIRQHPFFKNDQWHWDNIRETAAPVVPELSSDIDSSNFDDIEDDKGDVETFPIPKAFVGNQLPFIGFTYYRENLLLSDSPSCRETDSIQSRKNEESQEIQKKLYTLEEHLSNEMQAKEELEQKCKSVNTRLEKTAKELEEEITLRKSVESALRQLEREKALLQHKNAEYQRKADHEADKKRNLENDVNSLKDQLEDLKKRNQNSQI

In the case of `CCn1nc(-c2cc(C)c(-c3ccc(C)nc3)cc2F)nc1Nc1cc2c(cc1C)C(=O)NC2C` (stereo not drawn) [Example 83], the IC50 (usually the concentration needed to halve the response being measured) was less than 0.3 µM in assay [1] and 3 to 10 µM in assay [2].

For the compound `CCn1nc(-c2ccc(-c3ccc(C4CC4)nc3)c(F)c2)nc1Nc1cc2c(cc1F)C(=O)NC2C` (stereo not drawn) [Example 85], the results for the IC50 in assay [1] and in assay [2] were less than 0.3 µM and greater than 10 µM, respectively.

For the compound `CCn1nc(-c2ccc(-n3cnc(C4CC4)c3)c(F)c2)nc1Nc1ccc2c(c1)C(C)NC2=O` (stereo not drawn) [Example 86], the IC50 in assay [1] was less than 0.3 µM; in assay [2] it was 3 to 10 µM.

In the case of `CCn1nc(-c2ccc(-c3cc(C)cnc3C)c(C)c2)nc1Nc1cc2c(cc1C)C(=O)NC2C` (stereo not drawn) [Example 87], the IC50 was 3 to 10 µM in assay [1] and greater than 10 µM in assay [2].

As for `CCn1nc(-c2cc(C)c(-c3ccc(C4CC4)nc3)cc2C)nc1Nc1cc2c(cc1C)C(=O)NC2C` (stereo not drawn) [Example 88], the IC50 was less than 0.3 µM in assay [1] and greater than 10 µM in assay [2].

For the compound `CCn1nc(-c2ccc(-c3ccc(C)cn3)c(C)c2)nc1Nc1cc2c(cc1C)C(=O)NC2C` (stereo not drawn) [Example 89], the IC50 in assay [1] was less than 0.3 µM; in assay [2] it was greater than 10 µM.

As to `CCn1nc(-c2ccc(-c3ncc(C)cc3C)c(C)c2)nc1Nc1cc2c(cc1C)C(=O)NC2C` (stereo not drawn) [Example 90], the IC50 in assay [1] was 3 to 10 µM; in assay [2], greater than 10 µM.

As for `CCn1nc(-c2ccc(-c3cc(C)c(C)cn3)c(C)c2)nc1Nc1cc2c(cc1C)C(=O)NC2C` (stereo not drawn) [Example 91], the IC50 in assay [1] is less than 0.3 µM; in assay [2], 3 to 10 µM.

In the case of `CCn1nc(-c2ccc(-c3ccc(C)nc3C)c(C)c2)nc1Nc1cc2c(cc1C)C(=O)NC2C` (stereo not drawn) [Example 92], the IC50 was less than 0.3 µM in assay [1] and greater than 10 µM in assay [2].

As to `CCn1nc(-c2ccc(-c3ccc(C)nc3)cc2)nc1Nc1ccc2c(c1)C(F)NC2=O` (stereo not drawn) [Example 93], the IC50 in assay [1] was less than 0.3 µM; in assay [2], 3 to 10 µM.

For the compound `CCn1nc(-c2cc(C)c(-c3ccc(C4CC4)nc3)cc2F)nc1Nc1cc2c(cc1C)C(=O)NC2C` (stereo not drawn) [Example 94], the IC50 in assay [1] was less than 0.3 µM; in assay [2], 3 to 10 µM.

Consider `CCn1nc(-c2cc(C)c(-c3ccc(C)cn3)cc2C)nc1Nc1cc2c(cc1C)C(=O)NC2C` (stereo not drawn) [Example 95], for which the results for the IC50 in assay [1] and in assay [2] were less than 0.3 µM and greater than 10 µM, respectively.

`CCn1nc(-c2ccc(-c3ccc(C4CC4)nc3)nc2)nc1Nc1cc2c(cc1C)C(=O)NC2C` (stereo not drawn) [Example 97]: the IC50 is less than 0.3 µM in assay [1] and 3 to 10 µM in assay [2].

`CCn1nc(-c2cc(C)c(-c3ccc(C)nc3)cc2F)nc1Nc1ccc2c(c1)C(C)NC2=O` (stereo not drawn) [Example 98]: the IC50 was less than 0.3 µM in assay [1] and 3 to 10 µM in assay [2].

`CCn1nc(-c2cc(C)c(-c3cn(C)c(C4CC4)n3)cc2C)nc1Nc1ccc2c(c1)C(C)NC2=O` (stereo not drawn) [Example 99]: the IC50 is less than 0.3 µM in assay [1] and 3 to 10 µM in assay [2].

On to `CCn1nc(-c2ccc(-c3ccc(C)c(C)n3)c(C)c2)nc1Nc1cc2c(cc1C)C(=O)NC2C` (stereo not drawn) [Example 100], for which the values for the IC50 in assay [1] and in assay [2] were less than 0.3 µM and greater than 10 µM, respectively.

In the case of `CCn1nc(-c2ccc(-c3cc(C)cc(C)n3)c(C)c2)nc1Nc1cc2c(cc1C)C(=O)NC2C` (stereo not drawn) [Example 101], the values for the half-maximal inhibitory concentration (IC50) in assay [1] and in assay [2] were less than 0.3 µM and 3 to 10 µM, respectively.

`CCn1nc(-c2ccc(-c3ccc(C)nc3)cc2)nc1Nc1cc2c(cc1C)C(=O)NC2` [Example 102]: the IC50 was less than 0.3 µM in assay [1] and 0.3 to 3 µM in assay [2].

As for `CCn1nc(-c2ccc(-c3ccc(C4CC4)cn3)c(C)c2)nc1Nc1cc2c(cc1C)C(=O)NC2C` (stereo not drawn) [Example 103], the IC50 in assay [1] is less than 0.3 µM; in assay [2], 3 to 10 µM.

`CCn1nc(-c2ccc(-c3ccc(C)cn3)cc2)nc1Nc1cc2c(cc1C)C(=O)NC2C` (stereo not drawn) [Example 104]: the IC50 in assay [1] was less than 0.3 µM; in assay [2] it was 3 to 10 µM.

Consider `CCn1nc(-c2cnc(-c3ccc(C4CC4)cc3)c(C)c2)nc1Nc1cc2c(cc1C)C(=O)NC2C` (stereo not drawn) [Example 105], for which the IC50 was less than 0.3 µM in assay [1] and 3 to 10 µM in assay [2].

For the compound `CCn1nc(-c2cc(C)c(-c3ccc(C4CC4)nc3)cc2F)nc1Nc1ccc2c(c1)C(C)NC2=O` (stereo not drawn) [Example 106], the IC50 was less than 0.3 µM in assay [1] and 3 to 10 µM in assay [2].

In the case of `CCn1nc(-c2ccc(-c3nc(C)ccc3C)c(C)c2)nc1Nc1cc2c(cc1C)C(=O)NC2C` (stereo not drawn) [Example 107], the IC50 in assay [1] was 3 to 10 µM; in assay [2], greater than 10 µM.

Take `CCn1nc(-c2ccc(-c3cn(C)c(C4CC4)n3)c(F)c2)nc1Nc1ccc2c(c1)C(C)NC2=O` (stereo not drawn) [Example 108]: the IC50 in assay [1] is less than 0.3 µM; in assay [2], 3 to 10 µM.

Regarding `CCn1nc(-c2cc(C)c(-c3ccc(C4CC4)cn3)cc2F)nc1Nc1cc2c(cc1C)C(=O)NC2C` (stereo not drawn) [Example 109], the IC50 is less than 0.3 µM in assay [1] and 3 to 10 µM in assay [2].

As for `CCn1nc(-c2ccc(-c3ccc(C)nc3)nc2)nc1Nc1ccc2c(c1)C(C)NC2=O` (stereo not drawn) [Example 110], the IC50 in assay [1] is less than 0.3 µM; in assay [2], greater than 10 µM.

Take `CCn1nc(-c2cc(C)c(-c3ccc(C4CC4)nc3)cc2C)nc1Nc1ccc2c(c1)C(C)NC2=O` (stereo not drawn) [Example 111]: the figures for the IC50 in assay [1] and in assay [2] were less than 0.3 µM and greater than 10 µM, respectively.

Turning to `CCn1nc(-c2ccc(-c3ccc(C4CC4)cn3)c(C)c2)nc1Nc1ccc2c(c1)C(C)NC2=O` (stereo not drawn) [Example 112], the figures for the IC50 in assay [1] and in assay [2] were less than 0.3 µM and greater than 10 µM, respectively.

Consider `CCn1nc(-c2cc(C)c(-c3cn(C)c(C4CC4)n3)cc2F)nc1Nc1ccc2c(c1)C(C)NC2=O` (stereo not drawn) [Example 113], for which the values for the IC50 in assay [1] and in assay [2] were less than 0.3 µM and 3 to 10 µM, respectively.

Consider `CCn1nc(-c2cc(C)c(-c3ccc(C4CC4)cn3)cc2C)nc1Nc1cc2c(cc1C)C(=O)NC2C` (stereo not drawn) [Example 114], for which the IC50 in assay [1] was less than 0.3 µM; in assay [2], greater than 10 µM.

Consider `CCn1nc(-c2ccc(-c3ccc(C)nc3)c(C(=O)OC)c2)nc1Nc1cc2c(cc1C)C(=O)NC2C` (stereo not drawn) [Example 115], for which the IC50 is less than 0.3 µM in assay [1] and greater than 10 µM in assay [2].

Turning to `CCn1nc(-c2ccc(C3=CCN(C)CC3)cc2)nc1Nc1cc2c(cc1C)C(=O)NC2C` (stereo not drawn) [Example 116], the IC50 was 3 to 10 µM in assay [1] and greater than 10 µM in assay [2].

As for `CCn1nc(-c2ccc(C3=CCN(C)CC3)cc2C)nc1Nc1cc2c(cc1C)C(=O)NC2C` (stereo not drawn) [Example 117], the IC50 in assay [1] was 0.3 to 3 µM; in assay [2], greater than 10 µM.

On to `CCn1nc(-c2ccc(C3=CCN(CC(F)(F)F)C3)c(C)c2)nc1Nc1cc2c(cc1C)C(=O)NC2C` (stereo not drawn) [Example 118], for which the values for the IC50 in assay [1] and in assay [2] were less than 0.3 µM and greater than 10 µM, respectively.

On to `CCn1nc(-c2ccc(-c3ccc(C)nc3)c(C(C)(C)O)c2)nc1Nc1cc2c(cc1C)C(=O)NC2C` (stereo not drawn) [Example 119], for which the IC50 in assay [1] is 0.3 to 3 µM; in assay [2], greater than 10 µM.

As to `CCn1nc(-c2cc(C)c(-c3ccc(C)cn3)cc2F)nc1Nc1cc2c(cc1C)C(=O)NC2C` (stereo not drawn) [Example 120], the figures for the IC50 in assay [1] and in assay [2] were less than 0.3 µM and greater than 10 µM, respectively.

Take `CCn1nc(-c2cnc(-c3ccc(C4CC4)nc3)c(C)c2)nc1Nc1cc2c(cc1C)C(=O)NC2C` (stereo not drawn) [Example 121]: the IC50 is less than 0.3 µM in assay [1] and greater than 10 µM in assay [2].

For `CCn1nc(-c2ccc(-c3cn(C)c(C4CC4)n3)cc2C)nc1Nc1cc2c(cc1C)C(=O)NC2C` (stereo not drawn) [Example 122], the IC50 in assay [1] is less than 0.3 µM; in assay [2] it was 3 to 10 µM.

In the case of `CCn1nc(-c2ccc(C3CCN(CC(F)(F)F)CC3)cc2)nc1Nc1cc2c(cc1C)C(=O)NC2C` (stereo not drawn) [Example 123], the IC50 in assay [1] was 0.3 to 3 µM; in assay [2], greater than 10 µM.
